We go through 3 compounds from PMC9449155 (Brazilian Journal of Otorhinolaryngology, 2017).

For data set [1] the following is noted: laboratory experiments and clinical studies; cited from earlier work. The text has this: (§1) Fishman et al. reported that in a large review of patients with culture-positive, persistent tympanostomy tube otorrhea, S. aureus accounted for 52% of the organisms cultured, of which 57% were MRSA.[20] Presently, the most commonly used antibiotic against MRSA is vancomycin. […] Although there is no emergence of VRSA in CSOM, new anti-MRSA peptides need to be studied for the prevention of VRSA or VISA. Mandal et al. reported that approximately 15% of MRSA ...

The subject of the next data set is guinea pigs. The settings on record: guinea pig, in vivo; cited from earlier work.
From the text: as §1

The next data set relates to MRSA. Put plainly: Inhibition zone assay. In kind it is cell-based, Methicillin-resistant Staphylococcus aureus. The settings on record: 37 °C overnight. The protocol: MRSA was grown overnight for 18 h at 37 °C in 10 mL of LB broth and then 10 μL of this culture was inoculated into 10 mL of fresh LB and incubated for an additional 3 h at 37 °C to obtain mid-logarithmic phase organisms. The bacterial suspension (2 × 10^5 CFU/mL in LB) was mixed with 0.7% agarose and poured into a 10 cm Petri dish. […] The diameters of the bacterial clearance zones surrounding the circle paper were measured for the quantitation of inhibitory activities.

[2] abbreviates: paper disc on agarose plate, MRSA, zone size dose-dependent (Fig. 2).

Consider `CN[C@H](CC(C)C)C(=O)N[C@H]1C(=O)N[C@@H](CC(N)=O)C(=O)N[C@H]2C(=O)N[C@H]3C(=O)N[C@H](C(=O)N[C@H](C(=O)O)c4cc(O)cc(O)c4-c4cc3ccc4O)[C@H](O)c3ccc(c(Cl)c3)Oc3cc2cc(c3O[C@@H]2O[C@H](CO)[C@@H](O)[C@H](O)[C@H]2O[C@H]2C[C@](C)(N)[C@H](O)[C@H](C)O2)Oc2ccc(cc2Cl)[C@H]1O` [vancomycin], for which, in data set [1], the “ototoxicity after vancomycin treatment” value was “did not demonstrate significant ototoxicity”.

Regarding daptomycin, in the data set with guinea pigs, the “ototoxicity after topical application” value is listed as “no ototoxicity”.

Consider KRIVQRIKKWLR-NH2 [KR-12-a2], for which the “amount from which an inhibition zone against MRSA was produced” value in the data set on MRSA (10 μL aliquots of serial dilution on ≈6 mm paper discs, MRSA 2 × 10^5 CFU/mL in LB with 0.7% agarose) was 6.25 µg. Moreover, in the data set with MRSA (setting [2]), the “amount giving the highest mean diameter of the inhibition zone” value stood at 100 µg and the “amount giving the lowest mean diameter of the inhibition zone” value came to 6.25 µg.
